Source: ChEMBL document CHEMBL4507327 (2021)
Blank lines part the entries; values can stand above or below the molecule they belong to.

Legend:
[1] = biological target: Alpha-1D adrenergic receptor (Homo sapiens) (UniProt P25100); assay: Inhibition of Adrenergic alpha1D at 10 µM in the Eurofins-Panlabs radioligand binding assay (Eurofins_assay_203400); conditions: Compound concentration 10.0 uM
Rattus norvegicus [2] = species: Rattus norvegicus; assay: Inhibition of Imidazoline I2, Central at 10 µM in the Eurofins-Panlabs radioligand binding assay (Eurofins_assay_241000); design: ligand concentration 2 nM; conditions: Compound concentration 10.0 uM
[3] = biological target: Acetylcholine receptor subunit alpha (Homo sapiens) (UniProt P02708); assay: Inhibition of Nicotinic Acetylcholine D1, Bungarotoxin at 10 µM in the Eurofins-Panlabs radioligand binding assay (Eurofins_assay_258700); conditions: Compound concentration 10.0 uM
[4] = biological target: Prostaglandin E2 receptor EP4 subtype (Homo sapiens) (UniProt P35408); assay: Inhibition of Prostanoid EP4 at 10 µM in the Eurofins-Panlabs radioligand binding assay (Eurofins_assay_268420); design: ligand concentration 1 nM; conditions: Compound concentration 10.0 uM
[5] = biological target: Serine/threonine-protein kinase Nek8 (Homo sapiens, UniProt Q86SG6); assay: Nek8(NEK8LGRI) Takeda global kinase panel
[6] = biological target: 5-hydroxytryptamine receptor 1B (Homo sapiens) (UniProt P28222); conditions: Compound concentration 10.0 uM
[7] = biological target: 5-hydroxytryptamine receptor 5A (Homo sapiens) (UniProt P47898); conditions: Compound concentration 10.0 uM
[8] = biological target: 5-hydroxytryptamine receptor 7 (Homo sapiens) (UniProt P34969); conditions: Compound concentration 10.0 uM
[9] = biological target: D(2) dopamine receptor (Homo sapiens) (UniProt P14416); conditions: Compound concentration 10.0 uM
[10] = biological target: Sodium-dependent serotonin transporter (Homo sapiens) (UniProt P31645); conditions: Compound concentration 10.0 uM
[11] = biological target: Mu-type opioid receptor (Homo sapiens) (UniProt P35372); conditions: Compound concentration 10.0 uM
[12] = biological target: Delta-type opioid receptor (Homo sapiens) (UniProt P41143); conditions: Compound concentration 10.0 uM
[13] = biological target: Kappa-type opioid receptor (Homo sapiens) (UniProt P41145); conditions: Compound concentration 10.0 uM
[14] = biological target: Histamine H1 receptor (Homo sapiens) (UniProt P35367); conditions: Compound concentration 10.0 uM
[15] = biological target: Histamine H4 receptor (Homo sapiens) (UniProt Q9H3N8); conditions: Compound concentration 10.0 uM
[16] = biological target: Alpha-2B adrenergic receptor (Homo sapiens) (UniProt P18089); conditions: Compound concentration 10.0 uM
[17] = biological target: Muscarinic acetylcholine receptor M3 (Homo sapiens) (UniProt P20309); conditions: Compound concentration 10.0 uM
[18] = biological target: GABA-A receptor; anion channel (Rattus norvegicus) (UniProt O09028+P15431+P18506+P18508+P19969+P20236+P23574+P23576+P28471+P28473+P30191+P62813+P63079+P63138+Q91ZM7+Q9ES14); conditions: Compound concentration 10.0 uM
[19] = biological target: Sigma non-opioid intracellular receptor 1 (Homo sapiens) (UniProt Q99720); conditions: Compound concentration 10.0 uM
[20] = biological target: Alpha-2A adrenergic receptor (Homo sapiens) (UniProt P08913); conditions: Compound concentration 10.0 uM
Rattus norvegicus [21] = species: Rattus norvegicus; conditions: Compound concentration 10.0 uM
[22] = biological target: voltage-gated sodium channel, site 2 (Rattus norvegicus, UniProt F1LQQ7+O08562+O88420+O88457+P04774+P04775+P08104+P15389+P15390+Q62968); assay: Inhibition of Sodium Channel, Site 2 at 10 µM in the Eurofins-Panlabs radioligand binding assay (Eurofins_assay_279510); format: protein assay; design: ligand concentration 5 nM, non-specific ligand with concentration 100 µM Veratridine, incubation time 60 min, incubation temperature 37 °C; conditions: male, Wistar, whole brain (except cerebellum) membranes of rats, probe [3H] Batrachotoxinin, compound concentration 10 uM
[23] = biological target: Inhibitor of nuclear factor kappa-B kinase subunit beta (Homo sapiens, UniProt O14920); assay: IKKbeta(IKBBLHY1) Takeda global kinase panel
[24] = biological target: MAP kinase-activated protein kinase 2 (Homo sapiens, UniProt P49137); assay: MAPKAPK2(MPK2LGRH) Takeda global kinase panel
[25] = biological target: AP2-associated protein kinase 1 (Homo sapiens, UniProt Q2M2I8); assay: AAK1(AAK1LGF1) Takeda global kinase panel
[26] = biological target: RAC-alpha serine/threonine-protein kinase (Homo sapiens, UniProt P31749); assay: Akt1 [PKBalpha(AKT1PHFB)] Takeda global kinase panel
[27] = biological target: Calcium/calmodulin-dependent protein kinase type 1 (Homo sapiens, UniProt Q14012); assay: CaMK1alpha(CAM1LGT5) Takeda global kinase panel
[28] = biological target: Cyclin-dependent kinase-like 1 (Homo sapiens, UniProt Q00532); assay: CDKL1(CDL1LGT1) Takeda global kinase panel
[29] = biological target: Glycogen synthase kinase-3 alpha (Homo sapiens, UniProt P49840); assay: GSK3alpha(GS3ALGK1) Takeda global kinase panel
[30] = biological target: Homeodomain-interacting protein kinase 3 (Homo sapiens, UniProt Q9H422); assay: HIPK3(HIP3LGF1) Takeda global kinase panel
[31] = biological target: Tyrosine-protein kinase JAK2 (Homo sapiens, UniProt O60674); assay: JAK2(JAK2LGF1) Takeda global kinase panel
[32] = biological target: Dual specificity mitogen-activated protein kinase kinase 2 (Homo sapiens, UniProt P36507); assay: MEK2 [MAP2K2(M2K2LGF1)] Takeda global kinase panel
[33] = biological target: Mitogen-activated protein kinase kinase kinase 2 (Homo sapiens, UniProt Q9Y2U5); assay: MEKK2 [MAP3K2(M3K2LGF1)] Takeda global kinase panel
Misshapen-like kinase 1 = Misshapen-like kinase 1 (Homo sapiens, UniProt Q8N4C8); assay: MINK [ZC3(MIN1LGF1)] Takeda global kinase panel
[34] = biological target: cGMP-dependent protein kinase 1 (Homo sapiens, UniProt Q13976); assay: PKG1(PRG1LFP1) Takeda global kinase panel
[35] = biological target: Serine/threonine-protein kinase Sgk1 (Homo sapiens, UniProt O00141); assay: SGK1(SGK1LGF1) Takeda global kinase panel
[36] = biological target: Serine/threonine-protein kinase 16 (Homo sapiens, UniProt O75716); assay: MPSK1(ST16LGF1) Takeda global kinase panel
[37] = biological target: Serine/threonine-protein kinase 38-like (Homo sapiens, UniProt Q9Y2H1); assay: NDR2(S38LLGF1) Takeda global kinase panel
[38] = biological target: Dual specificity testis-specific protein kinase 1 (Homo sapiens, UniProt Q15569); assay: TESK1(TES1LGRA) Takeda global kinase panel
[39] = biological target: Glutamate NMDA receptor (Rattus norvegicus) (UniProt P35439+Q00959+Q00960+Q00961+Q62645+Q8VHN2+Q9R1M7); conditions: Compound concentration 10.0 uM
[40] = biological target: Histamine H2 receptor (Homo sapiens) (UniProt P25021); conditions: Compound concentration 10.0 uM

Sequence of Mu-type opioid receptor (Homo sapiens) (P35372 whole entry): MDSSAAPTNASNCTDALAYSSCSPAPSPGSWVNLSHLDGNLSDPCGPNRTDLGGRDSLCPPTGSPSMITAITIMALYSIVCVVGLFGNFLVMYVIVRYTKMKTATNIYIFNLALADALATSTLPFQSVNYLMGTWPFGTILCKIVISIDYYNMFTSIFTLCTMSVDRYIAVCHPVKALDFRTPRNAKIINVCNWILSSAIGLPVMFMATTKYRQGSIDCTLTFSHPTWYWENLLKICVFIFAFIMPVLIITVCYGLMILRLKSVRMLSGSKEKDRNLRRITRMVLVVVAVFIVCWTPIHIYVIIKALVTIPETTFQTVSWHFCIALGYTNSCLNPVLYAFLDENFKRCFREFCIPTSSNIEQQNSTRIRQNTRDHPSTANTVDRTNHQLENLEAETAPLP
Sequence of Alpha-2B adrenergic receptor (Homo sapiens) (P18089 whole entry): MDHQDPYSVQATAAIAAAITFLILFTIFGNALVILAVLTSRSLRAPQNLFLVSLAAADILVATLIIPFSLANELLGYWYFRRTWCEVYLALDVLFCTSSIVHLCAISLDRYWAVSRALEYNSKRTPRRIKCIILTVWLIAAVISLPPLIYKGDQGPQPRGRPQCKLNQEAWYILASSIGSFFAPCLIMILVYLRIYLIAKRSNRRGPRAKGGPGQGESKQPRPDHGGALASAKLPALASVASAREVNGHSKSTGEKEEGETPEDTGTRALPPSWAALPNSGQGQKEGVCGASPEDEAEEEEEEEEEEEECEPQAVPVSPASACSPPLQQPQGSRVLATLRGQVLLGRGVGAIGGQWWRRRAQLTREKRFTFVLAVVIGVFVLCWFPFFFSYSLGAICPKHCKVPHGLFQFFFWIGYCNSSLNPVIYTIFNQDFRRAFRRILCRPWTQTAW
Sequence of Dual specificity mitogen-activated protein kinase kinase 2 (P36507 whole entry): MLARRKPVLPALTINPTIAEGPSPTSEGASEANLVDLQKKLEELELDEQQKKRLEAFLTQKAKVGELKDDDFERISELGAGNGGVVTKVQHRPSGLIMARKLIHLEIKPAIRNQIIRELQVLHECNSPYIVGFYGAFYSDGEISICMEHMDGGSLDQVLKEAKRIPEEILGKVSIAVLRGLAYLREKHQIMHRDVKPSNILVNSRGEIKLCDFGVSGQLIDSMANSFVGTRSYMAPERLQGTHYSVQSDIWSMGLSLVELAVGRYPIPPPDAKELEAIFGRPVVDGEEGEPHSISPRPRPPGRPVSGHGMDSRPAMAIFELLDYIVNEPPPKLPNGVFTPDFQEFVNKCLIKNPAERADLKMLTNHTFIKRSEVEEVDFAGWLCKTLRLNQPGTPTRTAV
Sequence of Sodium-dependent serotonin transporter (Homo sapiens) (P31645 whole entry, looked up): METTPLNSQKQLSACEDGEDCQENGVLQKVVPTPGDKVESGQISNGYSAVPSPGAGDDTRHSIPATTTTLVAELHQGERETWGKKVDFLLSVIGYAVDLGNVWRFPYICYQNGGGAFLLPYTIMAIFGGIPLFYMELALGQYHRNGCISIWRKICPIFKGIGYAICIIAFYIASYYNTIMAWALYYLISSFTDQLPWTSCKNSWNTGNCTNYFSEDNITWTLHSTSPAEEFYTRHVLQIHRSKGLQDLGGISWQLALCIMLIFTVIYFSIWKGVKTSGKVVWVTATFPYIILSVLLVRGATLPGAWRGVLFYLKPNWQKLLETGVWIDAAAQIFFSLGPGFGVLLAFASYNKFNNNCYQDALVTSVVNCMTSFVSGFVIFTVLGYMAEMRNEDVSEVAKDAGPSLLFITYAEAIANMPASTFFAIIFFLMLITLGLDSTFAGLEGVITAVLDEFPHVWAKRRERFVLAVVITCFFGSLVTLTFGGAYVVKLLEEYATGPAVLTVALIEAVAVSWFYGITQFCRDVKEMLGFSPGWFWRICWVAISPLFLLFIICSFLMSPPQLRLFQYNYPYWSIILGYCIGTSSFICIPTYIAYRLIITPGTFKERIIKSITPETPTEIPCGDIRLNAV
Sequence of Tyrosine-protein kinase JAK2 (O60674 whole entry): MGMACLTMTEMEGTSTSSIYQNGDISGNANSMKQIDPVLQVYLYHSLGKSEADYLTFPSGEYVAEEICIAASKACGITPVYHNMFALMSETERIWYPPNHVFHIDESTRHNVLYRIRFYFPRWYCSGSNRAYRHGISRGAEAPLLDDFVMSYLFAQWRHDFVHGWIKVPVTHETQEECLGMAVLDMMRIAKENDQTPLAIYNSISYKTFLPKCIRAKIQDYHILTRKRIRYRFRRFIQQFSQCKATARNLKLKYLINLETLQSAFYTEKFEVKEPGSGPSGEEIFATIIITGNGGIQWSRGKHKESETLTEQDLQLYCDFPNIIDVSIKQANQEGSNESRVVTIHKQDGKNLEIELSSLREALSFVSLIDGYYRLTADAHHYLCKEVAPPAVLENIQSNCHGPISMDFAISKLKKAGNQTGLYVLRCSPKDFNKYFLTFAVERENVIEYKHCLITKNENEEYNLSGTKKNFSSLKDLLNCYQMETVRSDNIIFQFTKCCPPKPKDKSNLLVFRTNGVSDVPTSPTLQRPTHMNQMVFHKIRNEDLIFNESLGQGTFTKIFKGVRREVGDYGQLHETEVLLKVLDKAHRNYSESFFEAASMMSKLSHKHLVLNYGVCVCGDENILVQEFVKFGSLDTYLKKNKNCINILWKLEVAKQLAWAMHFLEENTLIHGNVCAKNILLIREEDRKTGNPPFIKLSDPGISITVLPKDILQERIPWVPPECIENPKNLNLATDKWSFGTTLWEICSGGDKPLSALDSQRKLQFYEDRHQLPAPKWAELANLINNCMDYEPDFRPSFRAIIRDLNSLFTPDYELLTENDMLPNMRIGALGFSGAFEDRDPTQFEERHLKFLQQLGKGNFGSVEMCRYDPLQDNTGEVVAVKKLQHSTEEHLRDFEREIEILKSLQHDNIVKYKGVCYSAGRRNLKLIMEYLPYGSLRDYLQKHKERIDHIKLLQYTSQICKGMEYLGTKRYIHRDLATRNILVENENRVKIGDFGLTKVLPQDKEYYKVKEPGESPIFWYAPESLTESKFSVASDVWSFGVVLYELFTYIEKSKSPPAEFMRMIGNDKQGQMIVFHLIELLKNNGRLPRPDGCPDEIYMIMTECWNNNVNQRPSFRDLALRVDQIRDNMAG
Sequence of Calcium/calmodulin-dependent protein kinase type 1 (Q14012 whole entry): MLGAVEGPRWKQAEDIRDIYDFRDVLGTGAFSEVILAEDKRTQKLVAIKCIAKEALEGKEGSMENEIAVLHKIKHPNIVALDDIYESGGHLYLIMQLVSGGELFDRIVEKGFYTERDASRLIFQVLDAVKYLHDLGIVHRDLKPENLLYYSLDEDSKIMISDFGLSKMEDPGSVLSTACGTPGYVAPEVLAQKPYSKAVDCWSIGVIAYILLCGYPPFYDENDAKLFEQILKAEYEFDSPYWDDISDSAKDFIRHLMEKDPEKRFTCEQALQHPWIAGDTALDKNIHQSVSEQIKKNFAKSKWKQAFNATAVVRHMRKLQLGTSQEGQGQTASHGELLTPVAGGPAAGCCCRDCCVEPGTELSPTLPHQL
Sequence of cGMP-dependent protein kinase 1 (Q13976 whole entry): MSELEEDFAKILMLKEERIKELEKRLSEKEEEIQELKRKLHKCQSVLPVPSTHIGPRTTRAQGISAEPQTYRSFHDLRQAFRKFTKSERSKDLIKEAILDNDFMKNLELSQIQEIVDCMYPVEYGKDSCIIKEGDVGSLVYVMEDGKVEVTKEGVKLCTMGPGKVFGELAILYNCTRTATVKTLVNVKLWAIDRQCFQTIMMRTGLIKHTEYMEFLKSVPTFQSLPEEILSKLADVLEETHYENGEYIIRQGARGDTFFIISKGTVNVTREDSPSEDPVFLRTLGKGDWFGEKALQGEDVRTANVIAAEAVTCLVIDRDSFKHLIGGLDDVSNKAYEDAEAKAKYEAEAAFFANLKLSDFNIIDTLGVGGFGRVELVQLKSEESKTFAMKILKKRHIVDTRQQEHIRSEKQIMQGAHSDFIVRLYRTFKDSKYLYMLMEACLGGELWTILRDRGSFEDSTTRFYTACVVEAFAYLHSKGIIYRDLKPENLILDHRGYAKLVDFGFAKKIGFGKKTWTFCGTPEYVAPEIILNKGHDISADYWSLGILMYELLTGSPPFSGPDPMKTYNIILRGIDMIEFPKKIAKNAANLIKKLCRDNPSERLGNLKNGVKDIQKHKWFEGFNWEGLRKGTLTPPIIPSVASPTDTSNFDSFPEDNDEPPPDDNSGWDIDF
Sequence of AP2-associated protein kinase 1 (Q2M2I8 whole entry): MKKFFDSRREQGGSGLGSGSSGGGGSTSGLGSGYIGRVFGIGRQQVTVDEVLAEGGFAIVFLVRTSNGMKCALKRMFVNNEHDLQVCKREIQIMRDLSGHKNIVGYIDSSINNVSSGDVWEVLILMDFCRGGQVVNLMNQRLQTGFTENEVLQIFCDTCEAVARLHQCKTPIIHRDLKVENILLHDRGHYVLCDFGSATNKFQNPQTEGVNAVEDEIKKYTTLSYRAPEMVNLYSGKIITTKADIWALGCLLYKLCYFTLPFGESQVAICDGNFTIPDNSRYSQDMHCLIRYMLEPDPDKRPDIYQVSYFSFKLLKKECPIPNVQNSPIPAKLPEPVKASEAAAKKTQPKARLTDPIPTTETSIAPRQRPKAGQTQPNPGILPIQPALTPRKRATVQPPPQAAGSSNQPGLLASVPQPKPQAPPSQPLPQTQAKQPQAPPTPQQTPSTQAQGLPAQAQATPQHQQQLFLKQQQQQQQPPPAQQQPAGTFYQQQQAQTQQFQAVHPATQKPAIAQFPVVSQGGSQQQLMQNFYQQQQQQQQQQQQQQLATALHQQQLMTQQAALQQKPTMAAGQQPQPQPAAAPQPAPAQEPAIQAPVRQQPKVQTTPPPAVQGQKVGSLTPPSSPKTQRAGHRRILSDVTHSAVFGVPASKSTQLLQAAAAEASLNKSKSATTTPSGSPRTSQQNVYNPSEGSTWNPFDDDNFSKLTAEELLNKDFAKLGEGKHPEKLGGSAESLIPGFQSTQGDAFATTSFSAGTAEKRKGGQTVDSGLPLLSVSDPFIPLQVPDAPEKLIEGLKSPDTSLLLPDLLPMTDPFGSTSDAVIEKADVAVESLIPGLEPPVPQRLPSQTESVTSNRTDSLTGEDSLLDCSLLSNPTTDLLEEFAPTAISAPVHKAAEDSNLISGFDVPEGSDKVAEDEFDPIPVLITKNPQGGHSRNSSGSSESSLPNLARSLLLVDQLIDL

SMILES: CN1C(=O)[C@@H](N2CCc3cn(Cc4ccccc4)nc3C2=O)COc2ccccc21 [TP-030-1]
inhibition [1]: -2%
inhibition (Rattus norvegicus [2]): 6%
inhibition [3]: -8%
inhibition [4]: 12%
IC50 [5]: 1000 nM
inhibition [6]: 0.99%
inhibition [7]: 21.1%
inhibition [8]: -1.17%
inhibition [9]: -5.46%
inhibition [10]: 5.99%
inhibition [11]: 10.6%
inhibition [12]: 28.8%
inhibition [13]: 14.7%
inhibition [14]: 20.5%
inhibition [15]: 6.09%
inhibition [16]: 43.3%
inhibition [17]: 0.09%
inhibition [18]: -3.98%
inhibition [19]: -1.9%
inhibition [20]: 7%
inhibition (Rattus norvegicus [21]): -7%

IC50 [23]: 1000 nM
IC50 [24]: 1000 nM
IC50 [25]: 1000 nM
IC50 [26]: 1000 nM
IC50 [27]: 1000 nM
IC50 [28]: 1000 nM
IC50 [29]: 1000 nM
IC50 [30]: 1000 nM
IC50 [31]: 1000 nM
IC50 [32]: 1000 nM
IC50 [33]: 1000 nM
IC50 (Misshapen-like kinase 1): 1000 nM
IC50 [34]: 1000 nM
IC50 [35]: 1000 nM
IC50 [36]: 1000 nM
IC50 [37]: 1000 nM
IC50 [38]: 1000 nM
inhibition [39]: 4%
inhibition [40]: -10%
SMILES: CN1C(=O)[C@@H](N2CCc3cn(CC4CCS(=O)(=O)CC4)nc3C2=O)COc2ccccc21 [TP-030n]
inhibition at 60 min, 10 µM [22]: 9% (not active)
